According to patent US20250340551A1, “SMALL MOLECULE MODULATORS OF STAT6” (Gilead Sciences, Inc., priority 2024, published 2025):

System: Eotaxin-3 (CCL26) release in human whole blood stimulated with IL-4
Experiment: Human whole blood eotaxin-3 assay (IL-4 stimulated, Eotaxin-3 release)
Assay type: cell-based
Conditions: Homo sapiens; for EC50: Hec50, 48 h; for Emax: 48 h
Procedure: This was a human whole blood assay using recombinant human Interleukin 4 to stimulate the blood and measuring the ability of the test compounds to inhibit eotaxin-3 release. The biological activities of the test compounds have been tested in human whole blood stimulated with IL-4 measuring Eotaxin-3 release. The test compounds were added to 384 well clear flat-bottom plate in a 4-fold serial dilution in triplicates using a liquid handler. Human whole blood stabilized in lithium-heparin tubes was added in a volume of 65 μL per well, resulting in a final DMSO concentration of 0.5%. The plate is incubated for 2 h at 37° C. under 5% CO2/95% air. Subsequently, 5 μL of recombinant human IL-4 (R&D Systems, cat #204-ILB) was added to the wells to a final concentration of 400 pM. The plate was incubated for 48 h at 37° C. under 5% CO2/95% air. The plate was spun down for 10 minutes at 500×g and 20 μL supernatant was harvested and transferred to a 384 well v-bottom plate using a liquid handler and stored at −20° C. until further analysis. 10 μL supernatant was used to measure the level of Eotaxin-3 (CCL26) using Human Eotaxin-3 MSD kit from Mesocsale (Cat #K251UEK-4). The assay was performed according to the manufacture instructions.
The data from the human whole blood eotaxin-3 assay is shown below for Examples 1u2, 1x1, 1af26, and 1af36 (where the effect in % is plotted against the test concentration in M on a log-scale).

EC50 [nM]	SMILES	Emax [%]
12.6	[2H]C([2H])([2H])N(C(=O)c1cc(C)c(C2=CCN([C@@H](C)c3cc4c(-c5ccc(N)nn5)ccnc4n3C)CC2)c(F)c1)C([2H])([2H])[2H] [Example 1af81, (S)-4-(1-(1-(4-(6-aminopyridazin-3-yl)-1-methyl-1H-pyrrolo[2,3-b]pyridin-2-yl)ethyl)-1,2,3,6-tetrahydropyridin-4-yl)-3-fluoro-5-methyl-N,N-bis(methyl-d3)benzamide]	–
53.3	[2H]C([2H])([2H])N(C(=O)c1cc(C)c(C2=CCN(Cc3cc4c(-c5ccc(N)nn5)ccnc4n3C)CC2)c(F)c1)C([2H])([2H])[2H] [Example 1z20, 4-(1-((4-(6-aminopyridazin-3-yl)-1-methyl-1H-pyrrolo[2,3-b]pyridin-2-yl)methyl)-1,2,3,6-tetrahydropyridin-4-yl)-3-fluoro-5-methyl-N,N-bis(methyl-d3)benzamide]	–
–	[2H]C([2H])([2H])N(C(=O)c1ccc(C2=CCN(Cc3cc4c(-c5ccc(N)nc5)ccnc4n3C)CC2)nn1)C([2H])([2H])[2H] [Example 1z4, 6-(1-((4-(6-aminopyridin-3-yl)-1-methyl-1H-pyrrolo[2,3-b]pyridin-2-yl)methyl)-1,2,3,6-tetrahydropyridin-4-yl)-N,N-bis(methyl-d3)pyridazine-3-carboxamide]	20 to 30
57	Cc1cc(C(=O)N(C)C)cc(C)c1C1=CCN(Cc2cc3c(-c4ccc(N)nn4)ccnc3n2C)CC1 [Example 1z12, 4-(1-((4-(6-aminopyridazin-3-yl)-1-methyl-1H-pyrrolo[2,3-b]pyridin-2-yl)methyl)-1,2,3,6-tetrahydropyridin-4-yl)-N,N,3,5-tetramethylbenzamide]	–
260	[2H]C([2H])([2H])N(C(=O)c1ccc(C2=CCN([C@@H](C)c3cc4c(-c5ccc(N)nn5)ccnc4n3C)CC2)cc1)C([2H])([2H])[2H] [Example 1af59, (S)-4-(1-(1-(4-(6-aminopyridazin-3-yl)-1-methyl-1H-pyrrolo[2,3-b]pyridin-2-yl)ethyl)-1,2,3,6-tetrahydropyridin-4-yl)-N,N-bis(methyl-d3)benzamide]	–
167	[2H]C([2H])([2H])N(C(=O)c1ccc([C@@H]2CCN(Cc3cc4c(-c5ccc(N)cn5)ccnc4n3C)[C@H](C)C2)cc1)C([2H])([2H])[2H] [Example 1z9, 4-((2R,4R)-1-((4-(5-aminopyridin-2-yl)-1-methyl-1H-pyrrolo[2,3-b]pyridin-2-yl)methyl)-2-methylpiperidin-4-yl)-N,N-bis(methyl-d3)benzamide]	–
81.8	CN(C)C(=O)c1cc(F)c(C2=CCN(Cc3cc4c(-c5ccc(N)nc5)ccnc4n3C)CC2)c(C2CC2)c1 [Example 1z35, 4-(1-((4-(6-aminopyridin-3-yl)-1-methyl-1H-pyrrolo[2,3-b]pyridin-2-yl)methyl)-1,2,3,6-tetrahydropyridin-4-yl)-3-cyclopropyl-5-fluoro-N,N-dimethylbenzamide]	–
37.8	Cc1cc(C(=O)N(C)C)cc(F)c1C1=CCN(Cc2cc3c(-c4ccc(N)nn4)ccnc3n2C)CC1 [Example 1z14, 4-(1-((4-(6-aminopyridazin-3-yl)-1-methyl-1H-pyrrolo[2,3-b]pyridin-2-yl)methyl)-1,2,3,6-tetrahydropyridin-4-yl)-3-fluoro-N,N,5-trimethylbenzamide]	–
13300	[2H]C([2H])([2H])N(C(=O)c1ccc(N2CCN(Cc3cc4c(-c5ccc(NC)nn5)ccnc4n3C)CC2)c(C)c1)C([2H])([2H])[2H] [Example 1p4, 3-Methyl-4-[4-[[1-methyl-4-[6-(methylamino)pyridazin-3-yl]pyrrolo[2,3-b]pyridin-2-yl]methyl]piperazin-1-yl]-N,N-bis(trideuteriomethyl)benzamide]	–
726	[2H]C([2H])([2H])N(C(=O)c1ccc(C2=CCN([C@@H](C)c3cc4c(-c5cnc(N)c(F)c5)ccnc4n3C)CC2)cc1)C([2H])([2H])[2H] [Example 1af56, (S)-4-(1-(1-(4-(6-Amino-5-fluoropyridin-3-yl)-1-methyl-1H-pyrrolo[2,3-b]pyridin-2-yl)ethyl)-1,2,3,6-tetrahydropyridin-4-yl)-N,N-bis(methyl-d3)benzamide]	–
439	CNc1ccc(-c2ccnc3c2cc([C@H](C)N2CC=C(c4c(C)cc(C(=O)N(C)C)cc4F)CC2)n3C)cn1 [Example 1z37, (S)-3-fluoro-N,N,5-trimethyl-4-(1-(1-(1-methyl-4-(6-(methylamino)pyridin-3-yl)-1H-pyrrolo[2,3-b]pyridin-2-yl)ethyl)-1,2,3,6-tetrahydropyridin-4-yl)benzamide]	–
–	[2H]C([2H])([2H])N(C(=O)c1ccc(C2CCN([C@@H](C)c3cc4c(-c5cnc(N)cc5C#N)ccnc4n3C)CC2)cc1)C([2H])([2H])[2H] [Example 1af70, (S)-4-(1-(1-(4-(6-amino-4-cyanopyridin-3-yl)-1-methyl-1H-pyrrolo[2,3-b]pyridin-2-yl)ethyl)piperidin-4-yl)-N,N-bis(methyl-d3)benzamide]	30 to 40
504	[2H]C([2H])([2H])N(C(=O)c1ccc(C2=CCN(Cc3cc4c(-c5ccc(NC)nn5)ccnc4n3C)CC2)c(C)c1)C([2H])([2H])[2H] [Example 1p7, 3-Methyl-4-[1-[[1-methyl-4-[6-(methylamino)pyridazin-3-yl]pyrrolo[2,3-b]pyridin-2-yl]methyl]-3,6-dihydro-2H-pyridin-4-yl]-N,N-bis(trideuteriomethyl)benzamide]	–
5.76	CN(C)C(=O)c1ccc(C2=CCN(Cc3cc4c(-c5ccc(N)nn5)ccnc4n3C)CC2)cc1 [Example 1z1, 4-(1-((4-(6-aminopyridazin-3-yl)-1-methyl-1H-pyrrolo[2,3-b]pyridin-2-yl)methyl)-1,2,3,6-tetrahydropyridin-4-yl)-N,N-dimethylbenzamide]	–
466	[2H]C([2H])([2H])N(C(=O)c1ccc(C2CCN([C@@H](C)c3cc4c(-c5ccc(NCCOC)nc5)ccnc4n3C)CC2)cc1)C([2H])([2H])[2H] [Example 1af50, (S)-4-(1-(1-(4-(6-((2-methoxyethyl)amino)pyridin-3-yl)-1-methyl-1H-pyrrolo[2,3-b]pyridin-2-yl)ethyl)piperidin-4-yl)-N,N-bis(methyl-d3)benzamide]	–
1090	[2H]C([2H])([2H])N(C(=O)c1ccc(C2CCN([C@@H](C)c3cc4c(-c5ncc(N)cc5OC)ccnc4n3C)CC2)cc1)C([2H])([2H])[2H] [Example 1af68, (S)-4-(1-(1-(4-(5-amino-3-methoxypyridin-2-yl)-1-methyl-1H-pyrrolo[2,3-b]pyridin-2-yl)ethyl)piperidin-4-yl)-N,N-bis(methyl-d3)benzamide]	–
301	CNc1ccc(-c2ccnc3c2cc(C(C)N2CC=C(c4c(C)cc(C(=O)N(C)C)cc4F)CC2)n3C)nc1 (centres unmarked) [Example 1z39, 3-fluoro-N,N,5-trimethyl-4-(1-(1-(1-methyl-4-(5-(methylamino)pyridin-2-yl)-1H-pyrrolo[2,3-b]pyridin-2-yl)ethyl)-1,2,3,6-tetrahydropyridin-4-yl)benzamide]	–
–	CNc1ccc(-c2ccnc3c2cc(CN2CC=C(c4ccc(C(=O)N(C)C)cn4)CC2)n3C)nn1 [Example 1p8, N,N-Dimethyl-6-[1-[[1-methyl-4-[6-(methylamino)pyridazin-3-yl]pyrrolo[2,3-b]pyridin-2-yl]methyl]-3,6-dihydro-2H-pyridin-4-yl]pyridine-3-carboxamide]	< 20
–	CN(C)C(=O)c1ncc(C2=CCN(Cc3cc4c(-c5ccc(N)nn5)ccnc4n3C)CC2)cn1 [Example 1z21, 5-(1-((4-(6-aminopyridazin-3-yl)-1-methyl-1H-pyrrolo[2,3-b]pyridin-2-yl)methyl)-1,2,3,6-tetrahydropyridin-4-yl)-N,N-dimethylpyrimidine-2-carboxamide]	20 to 30
–	CNc1ccc(-c2ccnc3c2cc(CN2CCN(c4ccc(C(=O)N(C)C)cn4)CC2)n3C)nn1 [Example 1p9, N,N-Dimethyl-6-[4-[[1-methyl-4-[6-(methylamino)pyridazin-3-yl]pyrrolo[2,3-b]pyridin-2-yl]methyl]piperazin-1-yl]pyridine-3-carboxamide]	< 20
638	[2H]C([2H])([2H])N(C(=O)c1ccc(C2=CCN([C@@H](C)c3cc4c(-c5cnc(N)c(C)c5)ccnc4n3C)CC2)cc1)C([2H])([2H])[2H] [Example 1af58, (S)-4-(1-(1-(4-(6-Amino-5-methylpyridin-3-yl)-1-methyl-1H-pyrrolo[2,3-b]pyridin-2-yl)ethyl)-1,2,3,6-tetrahydropyridin-4-yl)-N,N-bis(methyl-d3)benzamide]	–
7170	CN(C)C(=O)c1ccc(C2CCN(Cc3cc4c(-c5ccc(N)c(C(=O)O)n5)ccnc4n3C)CC2)cc1 [Example 1k79, 3-Amino-6-[2-[[4-[4-(dimethylcarbamoyl)phenyl]-1-piperidyl]methyl]-1-methyl-pyrrolo[2,3-b]pyridin-4-yl]pyridine-2-carboxylic acid]	–
–	CN(C)C(=O)c1ccc(C2CCN(Cc3cc4c(-c5ccc(N)nn5)ccnc4n3C)CC2)cc1 [Example 1z22, 4-(1-((4-(6-aminopyridazin-3-yl)-1-methyl-1H-pyrrolo[2,3-b]pyridin-2-yl)methyl)piperidin-4-yl)-N,N-dimethylbenzamide]	< 20
